Measurements as given in patent US8242280B2, “Fused ring heterocycle kinase modulators” (SGX Pharmaceuticals, Inc., priority 2007, dated 2012).

Legend:
Ba/F3 cells, ABL1 T315I = Ba/F3 cells, ABL1 T315I (Homo sapiens, UniProt P00519, T315I, cells depend on it); assay: 96-well XTT cell survival assay, Ba/F3 ABL1 T315I; assay type: cell-based; conditions: 72 hours, read-out: ABL1 T315I XTT [Ba/F3] IC50
Method: (§1) MV4-11 and THP cells were maintained in Iscove's Modified Dulbecco's Medium supplemented with 10% fetal bovine serum (FBS) and penicillin/streptomycin, Ba/F3 cells were maintained in RPMI 1640 supplemented with 10% FBS, penicillin/streptomycin and 5 ng/ml recombinant mouse IL-3.
(§2) Compounds were tested in the following assays in duplicate.
(§3) 96-well XTT assay: Cells (e.g. BaF3 315I, M351I, or E255K cells) were grown in growth media containing various concentrations of compounds (duplicates) on a 96-well plate for 72 hours at 37° C. The starting cell number was 5000-8000 cells per well and volume was 120 μl. At the end of the 72-hour incubation, 40 μl of XTT labeling mixture (50:1 solution of sodium 3′-[1-(phenylamino-carbonyl)-3,4-tetrazolium]-bis(4-methoxy-6-nitro)benzene sulfonic acid hydrate and Electron-coupling reagent: PMS (N-methyl dibenzopyrazine methyl sulfate) were added to each well of the plate. After an additional 2-6 hours of incubation at 37° C., the absorbance reading at 405 nm with background correction at 650 nm was measured with a spectrophotometer.

[1] = target: T1, unphosphorylated T315I Abl kinase domain (Mus musculus, UniProt P00520, T315I); assay: c-Abl T315I 0P bioassay (pyruvate kinase/lactate dehydrogenase coupled enzyme assay); assay type: biochemical; conditions: zero phosphorylation state (0P), 10 μM ATP, read-out: AbI T315I 0P IC50
T1 construct: purified and unphosphorylated T315I Abl kinase domain; made in house; host or cells: E. coli BL21(DE3) (Codon+RIL or pSA0145 strain)
T1 sequence (P00520 242-493 T315I limits assumed): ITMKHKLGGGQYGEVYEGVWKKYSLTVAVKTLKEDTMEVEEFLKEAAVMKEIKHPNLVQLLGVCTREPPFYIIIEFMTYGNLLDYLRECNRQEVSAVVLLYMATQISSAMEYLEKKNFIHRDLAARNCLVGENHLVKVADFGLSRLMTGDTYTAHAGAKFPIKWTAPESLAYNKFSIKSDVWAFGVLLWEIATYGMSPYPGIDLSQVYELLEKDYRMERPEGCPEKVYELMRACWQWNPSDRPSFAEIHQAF
From the text: Although the first of these examples uses the kinase domain of a mutant form of Abl T315I (“Abl T315I KD”), the kinase assays may use various forms of mutant and wild type enzymes, including, for example, the entire protein, the kinase domain, or a portion thereof (e.g. Abl Y393F). The kinases used in the assays may also be of varying phosphorylation states. In the c-Abl example, a mutant kinase at a zero phosphorylation state was used. c-Abl Pyruvate Kinase/Lactate Dehydrogenase Coupled Enzyme Assay
In the c-Abl Pyruvate Kinase (PK)/Lactate Dehydrogenase (LDH) Coupled Assay the protein kinase dependant phosphorylation of a substrate peptide was coupled to the oxidation of NADH. The oxidation of NADH to NAD+ was detected by monitoring a decrease in absorbance at 340 nm.
Materials: Abl substrate peptide=EAIYAAPFAKKK (SEQ ID NO: 1)—OH (Biopeptide, San Diego, Calif.); pNADH (Sigma Cat#N-8129, FW=709.4); 2M MgC12; 1M HEPES buffer, pH 7.5; Phosphoenolpyruvate (PEP) (Sigma Cat#P-7002, FW=234); Lactate dehydrogenase (LDH) (Worthington Biochemical Cat#2756); Pyruvate Kinase (PK) (Sigma Cat#P-9136); ATP (Sigma Cat#A-3377, FW=551); Greiner 384-well UV star plate; and purified and unphosphorylated T315I Abl kinase domain.
Stock Solutions: 10 mM NADH (7.09 mg/ml in miliQH2O) made fresh daily; 10 mM Abl substrate peptide (13.4 mg/ml in miliQH2O) stored at −20° C.; 100 mM HEPES buffer, pH 7.5 (5 ml 1M stock+45 ml miliQH2O); 100 mM MgCl2 (5 ml 2M MgCl2+95 ml dH2O); 100 MM PEP (23.4 mg/ml in dH2O) stored at −20° C.; 10 mM ATP (5.51 mg/ml in dH2O) stored at −20° C. (diluted 50 μl into total of 10 ml miliQH2O daily=50 μM ATP working stock); 1000 U/ml PK (U/mg varies with lot) flash-frozen under liquid N2 and stored at −80° C.; and 1000 U/ml LDH (U/mg varies with lot) flash-frozen under liquid N2 and stored at −80° C.
Standard Assay Setup for 384-well format (50 μl reaction): 300 μM NADH; 10 mM MgCl2; 2 mM PEP; 45U/ml PK; 60 U/ml LDH; 200 μM Abl substrate peptide; 2.5 μl test compound (in DMSO); 2 μg/ml Abl kinase domain; 10 μM ATP; 100 mM HEPES buffer. Positive controls contained DMSO with no test compound. Negative controls contained 5 μl of 0.5M EDTA (50 mM in the assay). The dephosphorylated form of the c-Abl T315I mutant was used in the biochemical screening assays. The kinase reaction was initiated at time t=0 by the addition of ATP.
Activity was measured by following the time-dependent loss of NADH by absorbance spectroscopy at 340 nm. The linear portion of the resulting progress curve was then analyzed by linear regression to get the activity in absorbance units/time, reported as the slope of that best fit line (moles/unit time can be calculated from using molar extinction coefficient for NADH at 340 nm, 6250M^−1 cm^−1).
Data was evaluated using the equation: Z′=1−[3*(σ++σ−)/|μ+−μ−|](Zhang, et al., 1999 J Biomol Screening 4(2) 67-73), where μ denotes the mean and σ the standard deviation. The subscript designates positive or negative controls. The Z′ score for a robust screening assay should be ≧0.50. The typical threshold=μ+−3*σ+. Any value that falls below the threshold was designated a “hit”.
Dose response was analyzed using the equation: y=min+{(max−min)/(1+10^[compound]−logIC50)}, where y is the observed initial slope, max=the slope in the absence of inhibitor, min=the slope at infinite inhibitor, and the IC50 is the [compound] that corresponds to ½ the total observed amplitude (Amplitude=max−min).
To measure modulation, activation, or inhibition of Abl KD, a test compound was added to the assay at a range of concentrations. Inhibitors may inhibit Abl KD activity at an IC50 in the micromolar range, the nanomolar range, or, for example, in the subnanomolar range.
An open-reading frame for c-Abl was amplified from a Mus musculus (mouse) cDNA library prepared from freshly harvested mouse liver using a commercially available kit (invitrogen) by PCR using the following primers: […]
The c-Abl T315I KD (kinase domain) was purified as follows. […]

Ba/F3 cells, ABL1 WT = Ba/F3 cells, ABL1 WT (Homo sapiens, UniProt P00519); assay: 96-well XTT cell survival assay, Ba/F3 ABL1 WT; assay type: cell-based; conditions: 72 hours, read-out: ABL1 WT XTT [Ba/F3] IC50
Method: as §1, §2, §3

Row | Structure (SMILES) | GI50 (Ba/F3 cells, ABL1 T315I) [nM] | IC50 [1] [nM] | GI50 (Ba/F3 cells, ABL1 WT) [nM]
1 | COc1ccccc1-c1n[nH]c2ncc(-c3cccc(C(O)CO)c3)cc12 (stereo not drawn) | > 1000 | < 50 | < 1000
2 | COc1ccccc1-c1n[nH]c2ncc(-c3cccc(CO)n3)cc12 | > 1000 | < 50 | < 1000
3 | COc1ccccc1-c1c[nH]c2ncc(-c3cccc(C(O)C(=O)N(C)CC4CCCO4)c3)cc12 (stereo not drawn) | < 1000 | < 50 | < 1000
4 | COc1ccccc1-c1c[nH]c2ncc(-c3cccc(C(C(=O)N(C)C)N4CCNCC4)c3)cc12 (stereo not drawn) | > 1000 | < 50 | > 1000
5 | COc1ccccc1-c1n[nH]c2ncc(-c3cccc(C(C)C(=O)N4CCC(O)C4)c3)cc12 (stereo not drawn) | > 1000 | < 50 | > 1000
6 | COc1ccccc1-c1n[nH]c2ncc(-c3cccc(C(C)C(=O)N(C)C)c3)cc12 (stereo not drawn) | > 1000 | < 50 | > 1000
7 | COc1ccccc1-c1c[nH]c2ncc(-c3cccc(C(N)C(=O)N(C)CCN(C)C)c3)cc12 (stereo not drawn) | > 1000 | < 50 | > 1000
8 | CN(C)C(=O)C(O)c1cncc(-c2cnc3[nH]cc(-c4ccc(N(C)C)cc4)c3c2)c1 (stereo not drawn) | > 1000 | 50 to 500 | > 1000
9 | COc1ccccc1-c1n[nH]c2ncc(-c3cccc(C(OC)C(=O)N(C)C)c3)cc12 (stereo not drawn) | < 1000 | < 50 | < 1000
10 | COc1ccccc1-c1n[nH]c2ncc(-c3cccc(C(O)c4ncccc4F)c3)cc12 (stereo not drawn) | < 1000 | < 50 | < 1000
11 | COc1ccccc1-c1n[nH]c2ncc(-c3cccc(C(O)C(=O)NCCN(C)C)c3)cc12 (stereo not drawn) | > 1000 | < 50 | < 1000
12 | COc1ccccc1-c1n[nH]c2ncc(-c3cccc([C@@H](O)[C@H](O)C(C)C)c3)cc12 | < 1000 | < 50 | < 1000
13 | COc1ccccc1-c1n[nH]c2ncc(-c3cccc(C(O)C(=O)NC4CCN(C)CC4)c3)cc12 (stereo not drawn) | > 1000 | < 50 | > 1000
14 | COc1ccccc1-c1n[nH]c2ncc(-c3cccc(C(O)C(=O)N(C)CCNC(C)(C)C)c3)cc12 (stereo not drawn) | < 1000 | < 50 | < 1000
15 | COc1ccccc1-c1c[nH]c2ncc(-c3cccc(C(C(=O)N4CCC[C@@H]4CO)N4CCNCC4)c3)cc12 (stereo partly drawn) | > 1000 | < 50 | > 1000
16 | CN(C)C(=O)C(O)c1cncc(-c2cnc3[nH]cc(-c4cccc5c4OC(F)(F)O5)c3c2)c1 (stereo not drawn) | > 1000 | < 50 | < 1000
17 | COc1ccccc1-c1c[nH]c2ncc(-c3cccc(C(O)C(=O)N(C)CCN(C)C)c3)cc12 (stereo not drawn) | < 1000 | < 50 | < 1000

Row | Structure (SMILES) | GI50 (Ba/F3 cells, ABL1 T315I) [nM] | IC50 [1] [nM] | GI50 (Ba/F3 cells, ABL1 WT) [nM]
18 | COc1ccccc1-c1n[nH]c2ncc(-c3cccc(C(O)c4ncccc4C(F)(F)F)c3)cc12 (stereo not drawn) | > 1000 | < 50 | > 1000
19 | COc1ccccc1-c1c[nH]c2ncc(-c3cccc(C(O)C(=O)N(C)C4CCOCC4)c3)cc12 (stereo not drawn) | < 1000 | < 50 | < 1000
20 | COc1ccccc1-c1c[nH]c2ncc(-c3cc(C(C#N)C(=O)N(C)C)ncn3)cc12 (stereo not drawn) | > 1000 | > 500 | > 1000
21 | COc1ccc(F)cc1-c1c[nH]c2ncc(-c3cncc(C(O)C(=O)N(C)C)c3)cc12 (stereo not drawn) | < 1000 | < 50 | < 1000
22 | CN(C)C(=O)C(O)c1cncc(-c2cnc3[nH]cc(-c4ccnn4C)c3c2)c1 (stereo not drawn) [drawing 464] | > 1000 | 50 to 500 | > 1000
23 | COc1ccccc1-c1n[nH]c2ncc(-c3cccc(C(C)(O)C(=O)N(C)C)c3)cc12 (stereo not drawn) | > 1000 | < 50 | > 1000
24 | COc1ccccc1-c1n[nH]c2ncc(-c3cccc(C(C)(O)C(=O)N4CC(O)C4)c3)cc12 (stereo not drawn) | > 1000 | < 50 | > 1000
25 | COc1ccccc1-c1c[nH]c2ncc(-c3cccc(C(O)c4ccccn4)c3)cc12 (stereo not drawn) | < 1000 | < 50 | < 1000
26 | COc1ccccc1-c1c[nH]c2ncc(-c3cncc(C(O)C4CC4)c3)cc12 (stereo not drawn) | < 1000 | < 50 | < 1000
27 | Cc1n[nH]c(C)c1-c1c[nH]c2ncc(-c3cncc(C(O)C(=O)N(C)C)c3)cc12 (stereo not drawn) | > 1000 | < 50 | > 1000
28 | COC(=O)C1=C(C)NC(=O)NC1c1cccc(-c2cnc3[nH]cc(-c4ccccc4OC)c3c2)c1 (stereo not drawn) | > 1000 | < 50 | > 1000
29 | COc1ccccc1-c1c[nH]c2ncc(-c3cccc(C4NC(=O)NC(C)=C4C(=O)N(C)C)c3)cc12 (stereo not drawn) | > 1000 | < 50 | > 1000
30 | CN(C)C(=O)C(O)c1cncc(-c2cnc3[nH]cc(-c4ccnn4CC(F)(F)F)c3c2)c1 (stereo not drawn) | > 1000 | > 500 | > 1000
31 | COc1ccccc1-c1c[nH]c2ncc(-c3ccnc(C(O)C(=O)N(C)C)n3)cc12 (stereo not drawn) | > 1000 | 50 to 500 | > 1000
32 | COc1ccccc1-c1n[nH]c2ncc(-c3cccc(C(C)C(=O)N(C)CCN(C)C)c3)cc12 (stereo not drawn) | > 1000 | < 50 | > 1000
33 | COc1ccccc1-c1n[nH]c2ncc(-c3cccc(C(O)C(=O)N4CCC(O)C4)c3)cc12 (stereo not drawn) | > 1000 | < 50 | > 1000
34 | COc1ccccc1-c1c[nH]c2ncc(-c3cccc(C(N)CC(=O)N4CCC[C@@H]4CO)c3)cc12 (stereo partly drawn) | > 1000 | < 50 | > 1000
